Measurements reported in ChEMBL document CHEMBL2417465, “One-pot synthesis and cytotoxicity studies of new Mannich base derivatives of polyether antibiotic--lasalocid acid” (Bioorg Med Chem Lett, 2013).
Active and inactive are the calls of the source. The calls are words filed in the database; no cut-off is given here.

What was measured:
[1] = test system: MCF7; assay: Selectivity index, ratio of IC50 for mouse BALB/3T3 cells to IC50 for human MCF7 cells; assay type: functional
[2] = test system: MCF7; assay: Selectivity index, ratio of IC50 for HLMEC cells to IC50 for human MCF7 cells; assay type: functional
[3] = test system: A549; assay: Selectivity index, ratio of IC50 for HLMEC cells to IC50 for human A549 cells; assay type: functional
[4] = test system: HT-29; assay: Selectivity index, ratio of IC50 for HLMEC cells to IC50 for human HT-29 cells; assay type: functional
[5] = test system: A549; assay: Selectivity index, ratio of IC50 for mouse BALB/3T3 cells to IC50 for human A549 cells; assay type: functional
[6] = Cytotoxicity against HLMEC cells after 72 hrs by SRB assay; assay type: cell-based, Homo sapiens; conditions: for IC50: Homo sapiens, HLMEC; for Activity: human, hlmec
[7] = test system: A549; assay: Cytotoxicity against human A549 cells after 72 hrs by MTT assay; assay type: functional, cell-based; conditions: for IC50: A549, 72 h
[8] = test system: HT-29; assay: Cytotoxicity against human HT-29 cells after 72 hrs by MTT assay; assay type: functional, cell-based; conditions: for IC50: HT-29, 72 h
[9] = test system: BALB/3T3; assay: Cytotoxicity against mouse BALB/3T3 cells after 72 hrs by SRB assay; assay type: cell-based; conditions: for IC50: Mus musculus, BALB/3T3, 72 h; for Activity: mouse, balb/3t3, 72 h
[10] = test system: P388; assay: Selectivity index, ratio of IC50 for HLMEC cells to IC50 for mouse P388 cells; assay type: functional
[11] = test system: HT-29; assay: Selectivity index, ratio of IC50 for mouse BALB/3T3 cells to IC50 for human HT-29 cells; assay type: functional
[12] = test system: P388; assay: Cytotoxicity against mouse P388 cells after 72 hrs by MTT assay; assay type: functional, cell-based; conditions: for IC50: P388, 72 h
[13] = test system: P388; assay: Selectivity index, ratio of IC50 for mouse BALB/3T3 cells to IC50 for mouse P388 cells; assay type: functional
[14] = test system: MCF7; assay: Cytotoxicity against human MCF7 cells after 72 hrs by MTT assay; assay type: functional, cell-based; conditions: for IC50: MCF7, 72 h

## CC[C@@H](C(=O)[C@@H](C)[C@@H](O)[C@H](C)CCc1ccc(C)c(O)c1CN1CCOCC1)[C@H]1O[C@](CC)([C@H]2CC[C@](O)(CC)[C@H](C)O2)C[C@@H]1C
[1]
  Ratio IC50: 6.89
[2]
  Ratio IC50: 2.33
[3]
  Ratio IC50: 0.71
[4]
  Ratio IC50: 0.85
[5]
  Ratio IC50: 2.1
[6]
  IC50: 4.86 µM
[7]
  IC50: 6.81 µM
[8]
  IC50: 5.74 µM
[9]
  IC50: 14.3 µM
[10]
  Ratio IC50: 1.5
[11]
  Ratio IC50: 2.5
[12]
  IC50: 3.23 µM
[13]
  Ratio IC50: 4.44
[14]
  IC50: 2.08 µM

## CC[C@@H](C(=O)[C@@H](C)[C@@H](O)[C@H](C)CCc1ccc(C)c(O)c1CN(Cc1ccccc1)Cc1ccccc1)[C@H]1O[C@](CC)([C@H]2CC[C@](O)(CC)[C@H](C)O2)C[C@@H]1C
[1]
  Ratio IC50: 4.17
[2]
  Ratio IC50: 0.25
[3]
  Ratio IC50: 0.13
[4]
  Ratio IC50: 0.06
[5]
  Ratio IC50: 2.09
[6]
  IC50: 4.61 µM
[7]
  IC50: 36.8 µM
[8]
  IC50: 75.6 µM
[9]
  IC50: 76.9 µM
[10]
  Ratio IC50: 1.12
[11]
  Ratio IC50: 1.02
[12]
  IC50: 4.11 µM
[13]
  Ratio IC50: 18.72
[14]
  IC50: 18.4 µM

## CCCCCCCCCCCCN(CCCCCCCCCCCC)Cc1c(CC[C@@H](C)[C@H](O)[C@H](C)C(=O)[C@H](CC)[C@H]2O[C@](CC)([C@H]3CC[C@](O)(CC)[C@H](C)O3)C[C@@H]2C)ccc(C)c1O
[6]
  Activity: Non-toxic
[7]
  Activity: inactive
[8]
  Activity: inactive
[9]
  Activity: Non-toxic
[12]
  Activity: inactive
[14]
  Activity: inactive

## CC[C@@H](C(=O)[C@@H](C)[C@@H](O)[C@H](C)CCc1ccc(C)c(O)c1CN(C(C)C)C(C)C)[C@H]1O[C@](CC)([C@H]2CC[C@](O)(CC)[C@H](C)O2)C[C@@H]1C
[1]
  Ratio IC50: 3.1
[2]
  Ratio IC50: 0.84
[3]
  Ratio IC50: 0.82
[4]
  Ratio IC50: 0.87
[5]
  Ratio IC50: 3.03
[6]
  IC50: 4.63 µM
[7]
  IC50: 5.62 µM
[8]
  IC50: 5.33 µM
[9]
  IC50: 17.1 µM
[10]
  Ratio IC50: 0.97
[11]
  Ratio IC50: 3.2
[12]
  IC50: 4.79 µM
[13]
  Ratio IC50: 3.56
[14]
  IC50: 5.5 µM

## CCCN(CCC)Cc1c(CC[C@@H](C)[C@H](O)[C@H](C)C(=O)[C@H](CC)[C@H]2O[C@](CC)([C@H]3CC[C@](O)(CC)[C@H](C)O3)C[C@@H]2C)ccc(C)c1O
[1]
  Ratio IC50: 4.04
[2]
  Ratio IC50: 0.73
[3]
  Ratio IC50: 0.78
[4]
  Ratio IC50: 0.59
[5]
  Ratio IC50: 4.29
[6]
  IC50: 4.12 µM
[7]
  IC50: 5.3 µM
[8]
  IC50: 7.03 µM
[9]
  IC50: 22.7 µM
[10]
  Ratio IC50: 1.15
[11]
  Ratio IC50: 3.23
[12]
  IC50: 3.58 µM
[13]
  Ratio IC50: 6.35
[14]
  IC50: 5.62 µM

## CC[C@@H](C(=O)[C@@H](C)[C@@H](O)[C@H](C)CCc1ccc(C)c(O)c1C(=O)O)[C@H]1O[C@](CC)([C@H]2CC[C@](O)(CC)[C@H](C)O2)C[C@@H]1C [LASALOCID]
[1]
  Ratio IC50: 2.36
[2]
  Ratio IC50: 0.56
[3]
  Ratio IC50: 0.97
[4]
  Ratio IC50: 0.9
[5]
  Ratio IC50: 4.08
[6]
  IC50: 1.75 µM
[7]
  IC50: 1.8 µM
[8]
  IC50: 1.95 µM
[9]
  IC50: 7.35 µM
[10]
  Ratio IC50: 0.39
[11]
  Ratio IC50: 3.77
[12]
  IC50: 4.54 µM
[13]
  Ratio IC50: 1.62
[14]
  IC50: 3.12 µM

## CCCCCCCCN(CCCCCCCC)Cc1c(CC[C@@H](C)[C@H](O)[C@H](C)C(=O)[C@H](CC)[C@H]2O[C@](CC)([C@H]3CC[C@](O)(CC)[C@H](C)O3)C[C@@H]2C)ccc(C)c1O
[6]
  Activity: Non-toxic
[7]
  Activity: inactive
[8]
  Activity: inactive
[9]
  Activity: Non-toxic
[12]
  Activity: inactive
[14]
  Activity: inactive

## CCCCN(CCCC)Cc1c(CC[C@@H](C)[C@H](O)[C@H](C)C(=O)[C@H](CC)[C@H]2O[C@](CC)([C@H]3CC[C@](O)(CC)[C@H](C)O3)C[C@@H]2C)ccc(C)c1O
[2]
  Ratio IC50: 0.73
[3]
  Ratio IC50: 0.84
[4]
  Ratio IC50: 0.63
[6]
  IC50: 4.43 µM
[7]
  IC50: 5.27 µM
[8]
  IC50: 7.02 µM
[10]
  Ratio IC50: 0.69
[12]
  IC50: 6.35 µM
[14]
  IC50: 6.11 µM
